Data published in the supplement of paper PMC8617591.

Experiments:
[1] = test system: Mycobacterium tuberculosis Erdman (autoluminescent); experiment: FIC90 (Loewe) at 90% inhibition (log2); higher = more antagonistic
Method: (§1)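 DiaMOND equipotent two-drug combination dose responses against autoluminescent M. tuberculosis Erdman in 8 in vitro models. Read-out is OD600, or luminescence for the intracellular and dormancy models, normalised to untreated wells. Hill-fit Einf, AUC25 and GRinf are potency metrics; FIC50 and FIC90 are Loewe-additivity fractional inhibitory concentrations, given as log2 (negative = synergy). Replicates are averaged.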

[2] = test system: Mycobacterium tuberculosis Erdman (autoluminescent); experiment: FIC50 (Loewe) at 50% inhibition (log2); higher = more antagonistic
Method: as §1

[3] = test system: Mycobacterium tuberculosis Erdman (autoluminescent); experiment: Einf, fitted maximum growth inhibition of combination (fraction); higher = stronger maximal inhibition
Method: as §1

[4] = test system: Mycobacterium tuberculosis Erdman (autoluminescent); experiment: GRinf, maximum normalised growth rate inhibition (unitless (-1 to 1)); higher = less effect (negative = killing)
Method: as §1

[5] = test system: Mycobacterium tuberculosis Erdman (autoluminescent); experiment: AUC25, normalised area under dose response up to IC25 (fraction (0-1)); higher = more potent at low dose
Method: as §1

COc1c(N2C[C@@H]3CCCN[C@@H]3C2)c(F)cc2c(=O)c(C(=O)O)cn(C3CC3)c12 [moxifloxacin] + CO[C@H]1/C=C/O[C@@]2(C)Oc3c(C)c(O)c4c(O)c(c(/C=N/N5CCN(C)CC5)c(O)c4c3C2=O)NC(=O)/C(C)=C\C=C\[C@H](C)[C@H](O)[C@@H](C)[C@@H](O)[C@@H](C)[C@H](OC(C)=O)[C@@H]1C [rifampicin]
Conditions | AUC25, [5] | Einf, [3] | FIC50, [2] | FIC90, [1] | GRinf, [4]
in vitro model: acidic pH 5.7, time point: constant (~7 days, model-specific) | 0.0689 | 0.781 | 0.367 | – | 0.0866
in vitro model: acidic pH 5.7, time point: terminal (~4-5 doublings, model-specific) | 0.0663 | 0.968 | 0.382 | 0.156 | -0.0508
in vitro model: intracellular J774, time point: constant = terminal | – | 0.985 | – | 0.644 | -0.307

Conditions | AUC25, [5] | Einf, [3] | FIC50, [2] | FIC90, [1] | GRinf, [4]
in vitro model: butyrate, time point: constant (~7 days, model-specific) | 0.107 | 0.886 | 0.528 | 0.508 | 0.0889
in vitro model: butyrate, time point: terminal (~4-5 doublings, model-specific) | 0.0896 | 0.956 | 0.435 | 0.598 | 0.0327
in vitro model: cholesterol 0.05 mM, time point: constant (~7 days, model-specific) | 0.117 | 0.62 | 0.744 | – | 0.145
in vitro model: cholesterol 0.05 mM, time point: terminal (~4-5 doublings, model-specific) | 0.091 | 0.885 | 0.35 | -0.321 | -0.0751
in vitro model: cholesterol-high 0.2 mM, time point: constant (~7 days, model-specific) | 0.0744 | 0.8 | 0.432 | – | -0.0793
in vitro model: cholesterol-high 0.2 mM, time point: terminal (~4-5 doublings, model-specific) | 0.066 | 0.985 | 0.68 | 0.43 | -0.57
in vitro model: dormancy (butyrate + nitrate, low O2), time point: constant (~7 days, model-specific) | 0.071 | 0.923 | 0.513 | -0.28 | 0.0564
in vitro model: dormancy (butyrate + nitrate, low O2), time point: terminal (~4-5 doublings, model-specific) | 0.059 | 0.98 | 0.589 | 0.752 | -0.197
in vitro model: standard 7H9 glycerol, time point: constant = terminal | 0.0477 | 0.828 | 0.486 | – | 0.308
in vitro model: valerate, time point: constant (~7 days, model-specific) | 0.04 | 0.842 | 0.724 | – | 0.085
in vitro model: valerate, time point: terminal (~4-5 doublings, model-specific) | 0.0278 | 0.925 | 0.717 | 0.437 | 0.0646

COc1c(N2C[C@@H]3CCCN[C@@H]3C2)c(F)cc2c(=O)c(C(=O)O)cn(C3CC3)c12 [moxifloxacin] + NC(=O)c1cnccn1 [pyrazinamide]
Conditions | AUC25, [5] | Einf, [3] | FIC50, [2] | FIC90, [1] | GRinf, [4]
in vitro model: acidic pH 5.7, time point: constant (~7 days, model-specific) | 0.105 | 0.748 | -1.4 | – | -0.479
in vitro model: acidic pH 5.7, time point: terminal (~4-5 doublings, model-specific) | 0.0766 | 0.958 | 0.112 | -1.08 | -0.337
in vitro model: intracellular J774, time point: constant = terminal | – | 0.992 | – | 0.544 | -0.418

Conditions | AUC25, [5] | Einf, [3] | FIC50, [2] | FIC90, [1] | GRinf, [4]
in vitro model: butyrate, time point: constant (~7 days, model-specific) | 0.114 | 0.922 | 0.244 | 0.945 | -0.0871
in vitro model: butyrate, time point: terminal (~4-5 doublings, model-specific) | 0.076 | 0.967 | 0.181 | 0.416 | 0.0175
in vitro model: cholesterol 0.05 mM, time point: constant (~7 days, model-specific) | 0.12 | 0.628 | – | – | 0.0508
in vitro model: cholesterol 0.05 mM, time point: terminal (~4-5 doublings, model-specific) | 0.135 | 0.936 | -0.139 | 1.9 | -0.173
in vitro model: cholesterol-high 0.2 mM, time point: constant (~7 days, model-specific) | 0.0967 | 0.93 | 0.32 | – | -0.314
in vitro model: cholesterol-high 0.2 mM, time point: terminal (~4-5 doublings, model-specific) | 0.0857 | 0.997 | 0.528 | 0.356 | -0.695
in vitro model: dormancy (butyrate + nitrate, low O2), time point: constant (~7 days, model-specific) | 0.0895 | 0.921 | -0.473 | -0.106 | 0.0154
in vitro model: dormancy (butyrate + nitrate, low O2), time point: terminal (~4-5 doublings, model-specific) | 0.0636 | 0.983 | -0.404 | -0.148 | -0.105
in vitro model: standard 7H9 glycerol, time point: constant = terminal | 0.0774 | 0.974 | – | – | -0.163
in vitro model: valerate, time point: constant (~7 days, model-specific) | 0.0818 | 0.834 | 0.51 | – | -0.121
in vitro model: valerate, time point: terminal (~4-5 doublings, model-specific) | 0.0462 | 0.917 | 0.399 | 0.0879 | 0.0483

COc1c(N2C[C@@H]3CCCN[C@@H]3C2)c(F)cc2c(=O)c(C(=O)O)cn(C3CC3)c12 [moxifloxacin] + O=[N+]([O-])c1cn2c(n1)OC[C@@H](OCc1ccc(OC(F)(F)F)cc1)C2 [pretomanid]
Conditions | AUC25, [5] | Einf, [3] | FIC50, [2] | FIC90, [1] | GRinf, [4]
in vitro model: acidic pH 5.7, time point: constant (~7 days, model-specific) | 0.139 | 0.846 | 0.225 | – | -0.773
in vitro model: acidic pH 5.7, time point: terminal (~4-5 doublings, model-specific) | 0.107 | 0.976 | -0.052 | 0.879 | -0.428
in vitro model: intracellular J774, time point: constant = terminal | – | 0.993 | – | -0.156 | -0.437

Conditions | AUC25, [5] | Einf, [3] | FIC50, [2] | FIC90, [1] | GRinf, [4]
in vitro model: butyrate, time point: constant (~7 days, model-specific) | 0.0964 | 0.947 | 0.526 | 0.61 | -0.0779
in vitro model: butyrate, time point: terminal (~4-5 doublings, model-specific) | 0.0655 | 0.973 | 0.406 | 0.607 | -0.07
in vitro model: cholesterol 0.05 mM, time point: constant (~7 days, model-specific) | 0.119 | 0.751 | 0.221 | – | -0.223
in vitro model: cholesterol 0.05 mM, time point: terminal (~4-5 doublings, model-specific) | 0.105 | 0.938 | 0.248 | 0.691 | -0.248
in vitro model: cholesterol-high 0.2 mM, time point: constant (~7 days, model-specific) | 0.103 | 0.952 | 0.238 | 1.96 | -0.404
in vitro model: cholesterol-high 0.2 mM, time point: terminal (~4-5 doublings, model-specific) | 0.0655 | 1 | 0.457 | 0.364 | -0.745
in vitro model: dormancy (butyrate + nitrate, low O2), time point: constant (~7 days, model-specific) | 0.0724 | 0.898 | 0.568 | 0.524 | 0.165
in vitro model: dormancy (butyrate + nitrate, low O2), time point: terminal (~4-5 doublings, model-specific) | 0.0602 | 0.96 | 0.607 | 0.936 | -0.142
in vitro model: standard 7H9 glycerol, time point: constant = terminal | 0.0929 | 0.978 | -0.329 | 0.198 | -0.166
in vitro model: valerate, time point: constant (~7 days, model-specific) | 0.12 | 0.9 | -0.0268 | – | -0.302
in vitro model: valerate, time point: terminal (~4-5 doublings, model-specific) | 0.102 | 0.968 | -0.156 | 0.429 | -0.0344
